Data: patent publication EP0726261A1, “Herbidical 1,2,4 thiadiazoles” (American Cyanamid Company, priority 1995, dated 1996)

Legend:
Type in all cases: in vivo
[1] = system: Alopecurus myosuroides; experiment: Preemergence herbicidal activity (Example 67); design: herbicide rating, ALOMY: scale not given here; conditions: pre, 800 g/ha; for herbicide rating, ALOMY: rated about 1-3 weeks after treatment
Summary of the method: (§1)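 At a rate of 800g/ha, an aqueous-diluted acetone solution of compound with 0.5% nonionic alkylphenol/ethylene oxide surfactant is applied to the soil of the cups. Greenhouse-held cups are scored on a rating system at about 1-3 weeks.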

[2] = system: Abutilon theophrasti; experiment: Preemergence herbicidal activity (Example 67); conditions: pre, 800 g/ha; for herbicide rating, ABUTH: rated about 1-3 weeks after treatment
Summary of the method: as §1

[3] = system: Veronica persica; experiment: Preemergence herbicidal activity (Example 67); conditions: pre, 800 g/ha; for herbicide rating, VERPE: rated about 1-3 weeks after treatment
Summary of the method: as §1

[4] = system: Helianthus annuus; experiment: Preemergence herbicidal activity (Example 67); conditions: pre, 800 g/ha; for herbicide rating, HELAN: rated about 1-3 weeks after treatment
Summary of the method: as §1

[5] = system: Zea mays; experiment: Preemergence herbicidal activity (Example 67); conditions: pre, 800 g/ha; for herbicide rating, ZEAMX: rated about 1-3 weeks after treatment
Summary of the method: as §1

[6] = system: Chenopodium album; experiment: Preemergence herbicidal activity (Example 67); conditions: pre, 800 g/ha; for herbicide rating, CHEAL: rated about 1-3 weeks after treatment
Summary of the method: as §1

[7] = system: Ipomoea hederacea; experiment: Preemergence herbicidal activity (Example 67); conditions: pre, 800 g/ha; for herbicide rating, IPOHE: rated about 1-3 weeks after treatment
Summary of the method: as §1

[8] = system: Galium aparine; experiment: Preemergence herbicidal activity (Example 67); conditions: pre, 800 g/ha; for herbicide rating, GALAP: rated about 1-3 weeks after treatment
Summary of the method: as §1

[9] = system: Amaranthus retroflexus; experiment: Preemergence herbicidal activity (Example 67); conditions: pre, 800 g/ha; for herbicide rating, AMARE: rated about 1-3 weeks after treatment
Summary of the method: as §1

[10] = system: Alopecurus myosuroides; experiment: Postemergence herbicidal activity (Example 67); conditions: pos, 800 g/ha; for herbicide rating, ALOMY: rated after 10-21 days
Summary of the method: (§2)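 Rate: 800g/ha, sprayed postemergence in 400 L/ha onto seedlings aged 3-6 weeks. Formulation was acetone/0.5% TRITON X-155 diluted in water. Readout: visual rating, 10-21 days after treatment.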

[11] = system: Setaria viridis; experiment: Postemergence herbicidal activity (Example 67); conditions: pos, 800 g/ha; for herbicide rating, SETVI: rated after 10-21 days
Summary of the method: as §2

[12] = system: Abutilon theophrasti; experiment: Postemergence herbicidal activity (Example 67); conditions: pos, 800 g/ha; for herbicide rating, ABUTH: rated after 10-21 days
Summary of the method: as §2

[13] = system: Hordeum vulgare; experiment: Postemergence herbicidal activity (Example 67); conditions: pos, 800 g/ha; for herbicide rating, HORVW: rated after 10-21 days
Summary of the method: as §2

[14] = system: Veronica persica; experiment: Postemergence herbicidal activity (Example 67); conditions: pos, 800 g/ha; for herbicide rating, VERPE: rated after 10-21 days
Summary of the method: as §2

[15] = system: Triticum aestivum; experiment: Postemergence herbicidal activity (Example 67); conditions: pos, 800 g/ha; for herbicide rating, TRZAW: rated after 10-21 days
Summary of the method: as §2

[16] = system: Helianthus annuus; experiment: Postemergence herbicidal activity (Example 67); conditions: pos, 800 g/ha; for herbicide rating, HELAN: rated after 10-21 days
Summary of the method: as §2

[17] = system: Zea mays; experiment: Postemergence herbicidal activity (Example 67); conditions: pos, 800 g/ha; for herbicide rating, ZEAMX: rated after 10-21 days
Summary of the method: as §2

[18] = system: Chenopodium album; experiment: Postemergence herbicidal activity (Example 67); conditions: pos, 800 g/ha; for herbicide rating, CHEAL: rated after 10-21 days
Summary of the method: as §2

[19] = system: Ipomoea hederacea; experiment: Postemergence herbicidal activity (Example 67); conditions: pos, 800 g/ha; for herbicide rating, IPOHE: rated after 10-21 days
Summary of the method: as §2

[20] = system: Galium aparine; experiment: Postemergence herbicidal activity (Example 67); conditions: pos, 800 g/ha; for herbicide rating, GALAP: rated after 10-21 days
Summary of the method: as §2

[21] = system: Amaranthus retroflexus; experiment: Postemergence herbicidal activity (Example 67); conditions: pos, 800 g/ha; for herbicide rating, AMARE: rated after 10-21 days
Summary of the method: as §2

[22] = system: Hordeum vulgare; experiment: Preemergence herbicidal activity (Example 67); design: herbicide rating, HORVW: scale not given here; conditions: pre, 800 g/ha; for herbicide rating, HORVW: rated about 1-3 weeks after treatment
Summary of the method: as §1

[23] = system: Triticum aestivum; experiment: Preemergence herbicidal activity (Example 67); design: herbicide rating, TRZAW: scale not given here; conditions: pre, 800 g/ha; for herbicide rating, TRZAW: rated about 1-3 weeks after treatment
Summary of the method: as §1

[24] = system: Setaria viridis; experiment: Preemergence herbicidal activity (Example 67); design: herbicide rating, SETVI: scale not given here; conditions: pre, 800 g/ha; for herbicide rating, SETVI: rated about 1-3 weeks after treatment
Summary of the method: as §1

CCCCc1nsc(C(=O)N[C@@H](C)c2ccccc2)n1 [Example 32]
6 (65-79%): herbicide rating, GALAP [20]
5 (45-64%): herbicide rating, VERPE [3] | herbicide rating, CHEAL [6] | herbicide rating, ABUTH [12] | herbicide rating, HELAN [16] | herbicide rating, CHEAL [18] | herbicide rating, IPOHE [19]
0: herbicide rating, ALOMY [1] | herbicide rating, ABUTH [2] | herbicide rating, HELAN [4] | herbicide rating, ZEAMX [5] | herbicide rating, IPOHE [7] | herbicide rating, GALAP [8] | herbicide rating, AMARE [9] | herbicide rating, VERPE [14] | herbicide rating, ZEAMX [17] | herbicide rating, HORVW [22] | herbicide rating, TRZAW [23] | herbicide rating, SETVI [24]
3 (16-29%): herbicide rating, TRZAW [15] | herbicide rating, AMARE [21]
7 (80-90%): herbicide rating, SETVI [11]
2 (6-15%): herbicide rating, ALOMY [10] | herbicide rating, HORVW [13]

COCCc1nsc(C(=O)N[C@@H](C)c2ccccc2)n1 [Example 34]
0: herbicide rating, ALOMY [1] | herbicide rating, ABUTH [2] | herbicide rating, HELAN [4] | herbicide rating, ZEAMX [5] | herbicide rating, CHEAL [6] | herbicide rating, IPOHE [7] | herbicide rating, GALAP [8] | herbicide rating, AMARE [9] | herbicide rating, HORVW [13] | herbicide rating, ZEAMX [17] | herbicide rating, AMARE [21] | herbicide rating, HORVW [22] | herbicide rating, TRZAW [23] | herbicide rating, SETVI [24]
3 (16-29%): herbicide rating, VERPE [3] | herbicide rating, ALOMY [10] | herbicide rating, SETVI [11] | herbicide rating, TRZAW [15]
4 (30-44%): herbicide rating, IPOHE [19]
2 (6-15%): herbicide rating, VERPE [14] | herbicide rating, HELAN [16] | herbicide rating, CHEAL [18]
1 (1-5%): herbicide rating, ABUTH [12] | herbicide rating, GALAP [20]

COc1ccc(-c2nsc(C(=O)NCc3cccs3)n2)cc1 [Example 36]
2 (6-15%): herbicide rating, IPOHE [7] | herbicide rating, VERPE [14] | herbicide rating, GALAP [20] | herbicide rating, AMARE [21]
3 (16-29%): herbicide rating, ZEAMX [5] | herbicide rating, ALOMY [10] | herbicide rating, TRZAW [15] | herbicide rating, CHEAL [18] | herbicide rating, IPOHE [19]
7 (80-90%): herbicide rating, SETVI [11]
0: herbicide rating, ALOMY [1] | herbicide rating, ABUTH [2] | herbicide rating, VERPE [3] | herbicide rating, HELAN [4] | herbicide rating, CHEAL [6] | herbicide rating, GALAP [8] | herbicide rating, AMARE [9] | herbicide rating, HORVW [13] | herbicide rating, ZEAMX [17] | herbicide rating, HORVW [22] | herbicide rating, TRZAW [23] | herbicide rating, SETVI [24]
4 (30-44%): herbicide rating, HELAN [16]
1 (1-5%): herbicide rating, ABUTH [12]

C[C@H](NC(=O)c1nsc(-c2ccc(F)cc2)n1)c1ccccc1 [Example 40, (S)-5-(4-Fluorophenyl)-[1,2,4]thiadiazole-3-carboxylic acid, 1-(phenylethyl)amide]
5 (45-64%): VER PE rating [3] | ALO MY rating [10] | ZEA MX rating [17]
4 (30-44%): HEL AN rating [4] | CHE AL rating [6] | TRZ AW rating [15] | SET VI rating [24]
9 (100% effect): SET VI rating [11] | HEL AN rating [16]
0: ALO MY rating [1] | ZEA MX rating [5] | IPO HE rating [7] | GAL AP rating [8] | AMA RE rating [9] | HOR VW rating [22] | TRZ AW rating [23]
6 (65-79%): HOR VW rating [13]
8 (91-99%): ABU TH rating [2] | ABU TH rating [12] | VER PE rating [14] | CHE AL rating [18] | IPO HE rating [19] | GAL AP rating [20] | AMA RE rating [21]
